Reference: publication PMC7400135, “3-(5-Nitrofuran-2-yl)prop-2-en-1-one Derivatives, with Potent Antituberculosis Activity, Inhibit A Novel Therapeutic Target, Arylamine N-acetyltransferase, in Mycobacteria” (Antibiotics, 2020)
≈ marks a conversion by molar mass, not a printed value. Like-named read-outs stand apart in the source and are kept apart here. Marks after values point to notes of the source that are not given here.

How the values were obtained:
[1] = test system: M. bovis BCG (ATCC 35734); assay: microbe, parasite or virus in culture; format: cell-based; conditions: Mycobacterium tuberculosis variant bovis BCG, 336 h, read-out: MIC Mycobacterium bovis BCG
[2] = test system: human monocyte THP-1 cell line; conditions: resazurin assay, 48 h incubation
[3] = test system: M. tuberculosis H37Rv (ATCC 25618); assay: HT-SPOTi growth inhibition (MIC), M. tuberculosis H37Rv; format: cell-based; conditions: Mycobacterium tuberculosis; HT-SPOTi agar assay; read-out: MIC Mtb H37Rv
[4] = test system: murine macrophage RAW 264.7 cell line; conditions: resazurin assay, 48 h incubation
[5] = test system: M. bovis BCG (ATCC 35734); conditions: ref Gupta and Bhakta, 2012; cited from earlier work
[6] = test system: M. aurum (NCTC 10437); set-up: method as in Gupta and Bhakta, 2012; conditions: ref Gupta and Bhakta, 2012; cited from earlier work
[7] = target: recombinant Mycobacterium marinum N-acetyltransferase (MMNAT) (Mycobacterium marinum, UniProt B2HIZ6); assay: Inhibition of recombinant MMNAT (DTNB assay); format: biochemical
Chain of recombinant Mycobacterium marinum N-acetyltransferase (MMNAT) (B2HIZ6 entry or part of it): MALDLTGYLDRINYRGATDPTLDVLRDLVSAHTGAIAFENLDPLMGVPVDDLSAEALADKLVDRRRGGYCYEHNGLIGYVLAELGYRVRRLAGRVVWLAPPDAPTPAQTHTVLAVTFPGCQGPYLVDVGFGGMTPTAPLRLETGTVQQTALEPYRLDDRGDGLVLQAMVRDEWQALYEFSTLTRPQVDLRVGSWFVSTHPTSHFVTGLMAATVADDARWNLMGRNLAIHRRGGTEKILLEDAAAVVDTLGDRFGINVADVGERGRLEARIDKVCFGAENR

[8] = test system: E. coli (NCTC 10538); assay: HT-SPOTi growth inhibition (MIC), E. coli; format: cell-based, Escherichia coli; conditions: 37 °C 16 h; for MIC: Escherichia coli, NCTC10538, LB agar; for MIC Escherichia coli: LB agar
[9] = test system: S. aureus (ATCC 25923); assay: HT-SPOTi growth inhibition (MIC), S. aureus; format: cell-based, Staphylococcus aureus; conditions: 37 °C 16 h; for MIC Staphylococcus aureus: LB agar; for MIC: Staphylococcus aureus, ATCC25923, LB agar
[10] = test system: M. aurum (NCTC 10437); assay: HT-SPOTi growth inhibition (MIC), M. aurum; format: cell-based; conditions: Mycolicibacterium aurum, NCTC10437, 120 h; HT-SPOTi agar assay, 35 °C 5 days; read-out: MIC Mycobacterium aurum
[11] = test system: M. bovis BCG infected in THP-1 macrophages; assay: microbe, parasite or virus in culture; format: cell-based, Mycobacterium bovis BCG; conditions: for ex vivo MIC as multiple of MIC: M. bovis BCG in THP-1 macrophages; for MIC: Mycobacterium tuberculosis variant bovis BCG, BCG, 48 h, read-out: ex vivo MIC
[12] = hydralazine 450 µM, acetyl CoA 400 µM, extrapolated from linear regression, read-out: IC50 MMNAT
[13] = value in brackets, same IC50 in mg/L, read-out: IC50 MMNAT

Row | Structure (SMILES) | MIC [1] | GIC THP-1 Cell Line [2] | MIC [3] | GIC RAW 264.7 Cell Line [4] | MIC Mycobacterium bovis BCG [5] | MIC Mycobacterium aurum [6] | IC50 [7] | IC50 [7, 12] | MIC [8] | MIC Escherichia coli [8] | MIC Staphylococcus aureus [9] | MIC [9] | MIC [10] | ex vivo MIC as multiple of MIC [11] | MIC [11] | IC50 [7, 13]
1 | CN(Cc1cnc2nc(N)nc(N)c2n1)c1ccc(C(=O)N[C@@H](CCC(=O)O)C(=O)O)cc1 [Methotrexate, reference compound] | 500 µg/mL (≈ 1100 µM) | 0.975 mg/L | > 500 µg/mL | 0.122 mg/L | – | – | – | – | – | – | – | – | – | – | – | –
2 | CO[C@H]1/C=C/O[C@@]2(C)Oc3c(C)c(O)c4c(O)c(c(/C=N/N5CCN(C)CC5)c(O)c4c3C2=O)NC(=O)/C(C)=C\C=C\[C@H](C)[C@H](O)[C@@H](C)[C@@H](O)[C@@H](C)[C@H](OC(C)=O)[C@@H]1C [Rifampicin] | – | – | 0.125 µg/mL (≈ 0.152 µM) | – | 0.50 ^# mg/L | 0.40 ^# mg/L | > 1000 nM | – | – | – | – | – | – | – | – | –
3 | O=[N+]([O-])c1cn2c(n1)OC[C@@H](OCc1ccc(OC(F)(F)F)cc1)C2 [Pretomanid] | – | – | 0.061 µg/mL (≈ 0.17 µM) | – | – | – | – | > 1000 nM | – | – | – | – | – | – | – | –
4 | O=C(/C=C/c1ccc([N+](=O)[O-])o1)c1ccc(N2CCOCC2)cc1 [Compound 1] | 0.06 µg/mL (≈ 0.183 µM) | 62.5 mg/L | 0.244 µg/mL (≈ 0.743 µM) | 125 mg/L | – | – | – | 207 nM | > 500 µg/mL | inactive | inactive | > 500 µg/mL | > 500 µg/mL | 4 × MIC | 0.24 µg/mL (≈ 0.731 µM) | 207 nM
5 | NNC(=O)c1ccncc1 [Isoniazid, reference compound] | 0.625 µg/mL (≈ 4.56 µM) | NA^a (not active until 500 mg/L concentration) | 0.8 µg/mL (≈ 5.83 µM) | NA^a (not active until 500 mg/L concentration) | – | – | – | > 1000 nM | – | – | – | – | 1.25 µg/mL (≈ 9.11 µM) | 2 × MIC | 1.25 µg/mL (≈ 9.11 µM) | –
6 | O=C(/C=C/c1ccc([N+](=O)[O-])o1)c1ccc(N2CCCCC2)cc1 [Compound 2] | 0.0075 µg/mL (≈ 0.023 µM) | 62.5 mg/L | 0.031 µg/mL (≈ 0.095 µM) | 125 mg/L | – | – | – | 269 nM | > 500 µg/mL | inactive | inactive | > 500 µg/mL | > 500 µg/mL | – | – | 270 nM
7 | CCN(CC)c1ccc(C(=O)/C=C/c2ccc([N+](=O)[O-])o2)cc1 [Compound 3] | 0.03 µg/mL (≈ 0.0954 µM) | 15.6 mg/L | 0.488 µg/mL (≈ 1.55 µM) | 31.25 mg/L | – | – | – | 134 nM | 250 µg/mL (≈ 795 µM) | – | – | 62.5 µg/mL (≈ 199 µM) | > 500 µg/mL | – | – | 134 nM
8 | CC1(C)S[C@@H]2[C@H](NC(=O)[C@H](N)c3ccccc3)C(=O)N2[C@H]1C(=O)O [Ampicillin, reference compound] | > 500 µg/mL | – | – | – | – | – | – | – | 2 µg/mL (≈ 5.72 µM) | – | – | 0.125 µg/mL (≈ 0.358 µM) | – | – | – | –
9 | CC[C@@H](CO)NCCN[C@@H](CC)CO [Ethambutol] | – | – | 2 µg/mL (≈ 9.79 µM) | – | 2.00 ^# mg/L | 0.10 ^# mg/L | – | > 1000 nM | – | – | – | – | – | – | – | –
